In brackets after ≈: the same amount, converted by molar mass. Blank lines part the entries; values can stand above or below the molecule they belong to.
Key:
[1] = Half life in rat; format: ADME; details: in vivo
[2] = Oral bioavailability in rat; format: ADME, organism-based; details: in vivo
Phosphodiesterase 7 [3] = target: T1, Phosphodiesterase 7 (Homo sapiens, UniProt Q13946+Q9NP56); assay: Inhibition of recombinant PDE7 (unknown origin) expressed in Escherichia coli BL21 (DE3) using [3H]cAMP as substrate preincubated for 15 mins followed by compound addition and incubated for 1 hr by liquid scintillation method
Phosphodiesterase 4 [4] = target: T2, Phosphodiesterase 4 (Homo sapiens, UniProt P27815+Q08499+Q07343+Q08493); assay: Inhibition of human recombinant PDE4; format: protein assay
[5] = target: 3',5'-cyclic-AMP phosphodiesterase 7B (Homo sapiens, UniProt Q9NP56); assay: Inhibition of PDE7B (unknown origin) by 3H-cAMP scintillation proximity assay
Chain of 3',5'-cyclic-AMP phosphodiesterase 7B (Q9NP56 whole entry): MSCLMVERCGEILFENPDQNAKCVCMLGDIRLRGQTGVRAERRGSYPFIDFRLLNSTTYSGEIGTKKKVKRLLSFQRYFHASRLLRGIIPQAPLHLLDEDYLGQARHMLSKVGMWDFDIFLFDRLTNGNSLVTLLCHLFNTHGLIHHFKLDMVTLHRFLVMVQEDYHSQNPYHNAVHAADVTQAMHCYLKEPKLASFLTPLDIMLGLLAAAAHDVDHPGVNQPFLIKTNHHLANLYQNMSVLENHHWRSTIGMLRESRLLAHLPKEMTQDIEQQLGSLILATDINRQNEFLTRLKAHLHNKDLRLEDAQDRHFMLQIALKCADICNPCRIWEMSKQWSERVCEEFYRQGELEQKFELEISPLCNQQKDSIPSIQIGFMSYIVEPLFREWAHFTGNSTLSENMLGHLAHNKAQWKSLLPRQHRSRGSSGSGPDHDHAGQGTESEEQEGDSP

Phosphodiesterase 7 [6] = target: T1, Phosphodiesterase 7; assay: Inhibition of full length PDE7 (unknown origin) using FAM-cAMP as substrate by fluorescence based analysis; format: protein assay
Phosphodiesterase 4 [7] = target: T2, Phosphodiesterase 4; assay: Inhibition of PDE4 (unknown origin) by fluorescent based assay; format: protein assay
Phosphodiesterase 7 [8] = target: T1, Phosphodiesterase 7; assay: Inhibition of PDE7 (unknown origin) by fluorescent based assay; format: protein assay
[9] = Inhibition of PDE8 (unknown origin) by fluorescent based assay; design: species or system Homo sapiens
[10] = target: T3, Glycogen synthase kinase-3 beta (Homo sapiens, UniProt P49841); assay: Inhibition of GSK-3beta (unknown origin)
T3 sequence (P49841 whole entry): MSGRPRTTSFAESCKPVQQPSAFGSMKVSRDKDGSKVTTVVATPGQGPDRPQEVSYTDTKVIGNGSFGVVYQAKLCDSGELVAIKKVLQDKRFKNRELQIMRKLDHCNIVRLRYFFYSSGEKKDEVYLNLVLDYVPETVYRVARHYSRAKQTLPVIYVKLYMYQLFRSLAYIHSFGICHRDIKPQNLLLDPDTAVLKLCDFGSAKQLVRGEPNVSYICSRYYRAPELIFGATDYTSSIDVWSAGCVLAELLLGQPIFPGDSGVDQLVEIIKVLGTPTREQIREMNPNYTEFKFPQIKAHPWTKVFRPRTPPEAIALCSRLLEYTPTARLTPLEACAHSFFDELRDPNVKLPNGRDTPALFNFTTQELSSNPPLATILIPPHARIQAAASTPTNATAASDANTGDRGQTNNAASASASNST

[11] = target: T4, High affinity 3',5'-cyclic-AMP phosphodiesterase 7A (Homo sapiens, UniProt Q13946); assay: Inhibition of PDE7A (unknown origin)
T4 sequence (Q13946 whole entry): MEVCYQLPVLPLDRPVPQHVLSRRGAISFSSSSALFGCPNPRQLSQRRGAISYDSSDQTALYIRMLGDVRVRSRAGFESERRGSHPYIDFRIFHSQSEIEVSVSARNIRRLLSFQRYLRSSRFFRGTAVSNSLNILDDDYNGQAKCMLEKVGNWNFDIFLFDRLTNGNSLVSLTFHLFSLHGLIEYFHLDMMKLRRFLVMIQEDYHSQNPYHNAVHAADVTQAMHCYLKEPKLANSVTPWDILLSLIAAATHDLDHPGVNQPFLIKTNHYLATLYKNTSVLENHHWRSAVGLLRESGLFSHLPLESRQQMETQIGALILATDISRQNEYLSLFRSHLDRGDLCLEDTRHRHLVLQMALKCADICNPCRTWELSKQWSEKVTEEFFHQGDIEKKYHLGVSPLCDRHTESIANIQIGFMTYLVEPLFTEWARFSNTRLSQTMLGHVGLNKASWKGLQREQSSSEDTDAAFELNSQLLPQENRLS

Phosphodiesterase 3 = Phosphodiesterase 3 (Homo sapiens, UniProt Q14432+Q13370); assay: Inhibition of human recombinant PDE3 expressed in Escherichia coli
[12] = Brain to plasma ratio in iv dosed rat measured after 30 mins; format: ADME, organism-based; details: read-out: BPR
[13] = target: 3',5'-cyclic-AMP phosphodiesterase 4D (Homo sapiens, UniProt Q08499); assay: Inhibition of human PDE4D3
Chain of 3',5'-cyclic-AMP phosphodiesterase 4D (Q08499 whole entry): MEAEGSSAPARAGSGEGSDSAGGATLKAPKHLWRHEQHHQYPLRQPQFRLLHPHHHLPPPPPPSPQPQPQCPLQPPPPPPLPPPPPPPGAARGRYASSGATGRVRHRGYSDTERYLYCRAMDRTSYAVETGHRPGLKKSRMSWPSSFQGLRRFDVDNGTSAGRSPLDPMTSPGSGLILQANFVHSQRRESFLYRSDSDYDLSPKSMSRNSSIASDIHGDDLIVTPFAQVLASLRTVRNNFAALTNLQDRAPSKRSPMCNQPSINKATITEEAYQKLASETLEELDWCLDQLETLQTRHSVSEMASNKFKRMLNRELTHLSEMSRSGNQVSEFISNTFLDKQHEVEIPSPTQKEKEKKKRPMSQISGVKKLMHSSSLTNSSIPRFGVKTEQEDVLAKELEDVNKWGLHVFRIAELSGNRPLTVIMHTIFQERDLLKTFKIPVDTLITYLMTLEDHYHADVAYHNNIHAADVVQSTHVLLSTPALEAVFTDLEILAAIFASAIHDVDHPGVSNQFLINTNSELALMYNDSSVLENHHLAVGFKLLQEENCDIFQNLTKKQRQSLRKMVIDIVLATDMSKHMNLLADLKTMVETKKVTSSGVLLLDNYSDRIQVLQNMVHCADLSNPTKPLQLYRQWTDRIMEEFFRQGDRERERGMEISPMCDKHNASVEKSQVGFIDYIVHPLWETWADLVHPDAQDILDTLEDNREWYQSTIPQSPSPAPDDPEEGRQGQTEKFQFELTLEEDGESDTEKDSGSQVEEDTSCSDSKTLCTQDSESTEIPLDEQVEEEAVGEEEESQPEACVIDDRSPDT

[14] = target: T4, High affinity 3',5'-cyclic-AMP phosphodiesterase 7A; assay: Inhibition of recombinant PDE7A1 (unknown origin) expressed in Escherichia coli BL21 using [3H]cAMP as substrate preincubated for 15 mins followed by compound addition and measured after 1 hr by liquid scintillation method
[15] = Oral bioavailability in mouse at 2.5 mg/kg; format: ADME, organism-based; details: in vivo
[16] = Inhibition of human PDE4 catalytic domain expressed in Escherichia coli
[17] = Selectivity index, ratio of IC50 for inhibition of PDE7A1 (130 to 482 residues) (unknown origin) expressed in Escherichia coli BL21 to IC50 for inhibition of recombinant PDE4D2 (86 to 413 residues) (unknown origin) expressed in Escherichia coli BL21
[18] = Aqueous solubility of compound in PBS at pH 6.5; format: physicochemical
[19] = target: T3, Glycogen synthase kinase-3 beta; assay: Inhibition of GSK3beta (unknown origin) activity assessed as […] by ADP-Glo Kinase Assay
Phosphodiesterase 7 [20] = target: T1, Phosphodiesterase 7; assay: Inhibition of PDE7 (unknown origin); format: protein assay
Homo sapiens = species on record: Homo sapiens; assay: Selectivity index, ratio of IC50 for human PDE4B1 S133D mutant to IC50 for human PDE4D7 S129D mutant
[21] = target: T4, High affinity 3',5'-cyclic-AMP phosphodiesterase 7A; assay: Inhibition of recombinant PDE7A1 (130 to 482 residues) (unknown origin) expressed in Escherichia coli BL21 (DE3) using [3H]cAMP as substrate incubated for 15 mins by liquid scintillation method
[22] = target: 3',5'-cyclic-AMP phosphodiesterase 4A (Homo sapiens, UniProt P27815); assay: Inhibition of PDE4A1 (unknown origin)
Chain of 3',5'-cyclic-AMP phosphodiesterase 4A (P27815 whole entry): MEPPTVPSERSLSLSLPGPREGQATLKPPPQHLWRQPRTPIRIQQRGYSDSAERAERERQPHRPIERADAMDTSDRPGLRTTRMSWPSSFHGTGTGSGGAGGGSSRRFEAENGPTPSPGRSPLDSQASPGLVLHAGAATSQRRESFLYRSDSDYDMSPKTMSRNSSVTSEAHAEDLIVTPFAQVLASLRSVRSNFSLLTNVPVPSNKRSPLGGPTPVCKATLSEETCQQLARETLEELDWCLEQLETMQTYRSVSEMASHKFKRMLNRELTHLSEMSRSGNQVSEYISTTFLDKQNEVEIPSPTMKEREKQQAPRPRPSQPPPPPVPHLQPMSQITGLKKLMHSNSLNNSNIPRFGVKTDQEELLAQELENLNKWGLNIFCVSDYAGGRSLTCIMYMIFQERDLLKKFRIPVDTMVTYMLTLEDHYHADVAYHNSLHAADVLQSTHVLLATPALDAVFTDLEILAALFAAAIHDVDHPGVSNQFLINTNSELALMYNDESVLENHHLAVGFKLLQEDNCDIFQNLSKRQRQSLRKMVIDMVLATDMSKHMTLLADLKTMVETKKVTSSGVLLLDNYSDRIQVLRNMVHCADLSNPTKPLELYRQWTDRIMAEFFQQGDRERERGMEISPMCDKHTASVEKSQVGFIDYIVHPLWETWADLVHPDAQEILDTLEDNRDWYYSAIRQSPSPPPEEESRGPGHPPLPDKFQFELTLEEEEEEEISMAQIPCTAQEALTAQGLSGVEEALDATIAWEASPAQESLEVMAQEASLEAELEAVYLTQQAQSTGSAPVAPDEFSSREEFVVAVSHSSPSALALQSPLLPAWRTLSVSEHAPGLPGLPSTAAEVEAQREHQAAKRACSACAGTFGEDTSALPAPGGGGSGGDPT

[23] = target: 3',5'-cyclic-AMP phosphodiesterase 4B (Homo sapiens, UniProt Q07343); assay: Inhibition of PDE4B1 (unknown origin)
Chain of 3',5'-cyclic-AMP phosphodiesterase 4B (Q07343 whole entry): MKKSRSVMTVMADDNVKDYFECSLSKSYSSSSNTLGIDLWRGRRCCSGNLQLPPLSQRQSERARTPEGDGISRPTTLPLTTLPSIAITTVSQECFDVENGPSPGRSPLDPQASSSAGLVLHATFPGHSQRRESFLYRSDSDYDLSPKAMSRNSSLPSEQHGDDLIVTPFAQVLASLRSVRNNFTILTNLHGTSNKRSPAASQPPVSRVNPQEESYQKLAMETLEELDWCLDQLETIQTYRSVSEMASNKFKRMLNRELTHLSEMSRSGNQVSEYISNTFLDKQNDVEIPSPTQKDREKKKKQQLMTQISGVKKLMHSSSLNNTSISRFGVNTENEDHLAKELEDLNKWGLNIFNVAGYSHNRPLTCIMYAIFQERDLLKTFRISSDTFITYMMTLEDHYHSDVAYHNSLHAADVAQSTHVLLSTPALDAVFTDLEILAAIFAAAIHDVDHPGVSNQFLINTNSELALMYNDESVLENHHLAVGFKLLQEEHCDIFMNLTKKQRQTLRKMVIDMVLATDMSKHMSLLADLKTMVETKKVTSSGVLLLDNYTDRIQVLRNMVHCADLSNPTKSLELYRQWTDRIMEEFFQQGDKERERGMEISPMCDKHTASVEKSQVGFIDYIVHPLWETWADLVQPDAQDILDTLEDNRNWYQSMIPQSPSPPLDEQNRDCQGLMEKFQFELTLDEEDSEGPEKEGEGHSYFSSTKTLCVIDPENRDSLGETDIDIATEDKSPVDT

IC50 (Phosphodiesterase 4 [7]): 380 nM
SMILES: O=C(Nc1ccc(N2CCOCC2)cc1)c1cn(Cc2c(F)cccc2F)c2cccnc2c1=O

IC50 (Phosphodiesterase 7 [8]): 37 nM | IC50 [9]: 15 nM
SMILES: N#Cc1cc(Cn2c(=O)c3cc(OC(CF)CF)ccc3n(C3CCN(C=O)CC3)c2=O)ccc1-c1ccccc1

IC50 [10]: 1950 nM
SMILES: OCC/N=c1/nc(-c2ccccc2)n(-c2ccccc2)s1

IC50 (Phosphodiesterase 7 [6]): 550 nM
SMILES: S=c1[nH]c2ccccc2c(=S)n1-c1ccccc1

IC50 [5]: 1700 nM | IC50 [16]: 130 nM | Ratio IC50 [17]: 13
SMILES: CCOc1cc2cc(CO)c(CO)c(-c3ccnc(-n4nc(-c5cccnc5)c5ccccc5c4=O)c3)c2cc1OCC

IC50 (Phosphodiesterase 7 [6]): 1590 nM | IC50 (Phosphodiesterase 3): > 10000 nM
SMILES: Br.c1ccc(-c2n/c(=N/CCC3CCOCC3)sn2-c2ccccc2)cc1

IC50 (Phosphodiesterase 7 [8]): 1020 nM | IC50 [19]: 6300 nM
SMILES: N=c1nc(-c2ccccc2)n(-c2ccccc2)s1

IC50 [13]: 160 nM | IC50 [14]: 3970 nM | bioavailability [15]: 49.3%
SMILES: Cn1nc(-c2ccc(Cl)cc2)s/c1=N\c1ccc(F)c(C(=O)O)c1

IC50 (Phosphodiesterase 7 [6]): 1150 nM
SMILES: COc1ccc(/C(CSc2nc3ccccc3c(=O)n2-c2ccccc2)=N\O)cc1

IC50 (Phosphodiesterase 7 [6]): 74 nM
SMILES: Fc1cc2nc(S)[nH]c(=S)c2cc1F

IC50 [14]: < 171 nM
SMILES: FC(F)(F)c1cc(N2C(=S)Nc3ccccc3C23CCc2ccccc2N3)cc(C(F)(F)F)c1 (stereo not given)

IC50 [21]: 142 nM | IC50 [22]: 112 nM | IC50 [23]: 305 nM
SMILES: CCOC(=O)c1cc2c(=O)n3ccccc3nc2n(C2CCCCC2)/c1=N\C(C)=O

IC50 [14]: < 0.15 nM
SMILES: O=C1Nc2c(Cl)ccc(Oc3ccccc3-c3nnn[nH]3)c2C2(CCCCC2)N1

IC50 (Phosphodiesterase 7 [8]): 1590 nM | IC50 [19]: 880 nM
SMILES: c1ccc(-c2n/c(=N/CCN3CCOCC3)sn2-c2ccccc2)cc1

IC50 [5]: 14 nM | IC50 [16]: 630 nM | Ratio IC50 [17]: 45
SMILES: COc1ccc(-c2cc3c(n2-c2ccc(S(=O)(=O)Nc4nc(C)cc(C)n4)cc2)CCC(N2CCN(C)CC2)C3)cc1C (stereo not given)

IC50 (Phosphodiesterase 7 [3]): 16 nM | IC50 (Phosphodiesterase 4 [4]): 1420 nM
SMILES: O=C1Nc2c(Cl)cc(-c3ccccc3)cc2C2(CCCCC2)N1

IC50 (Phosphodiesterase 7 [8]): 380 nM | IC50 [19]: 1280 nM
SMILES: c1ccc(-c2n/c(=N/Cc3cccnc3)sn2-c2ccccc2)cc1

IC50 (Phosphodiesterase 7 [6]): 8000 nM
SMILES: O=S1(=O)N=C(O)c2ccccc2N1

IC50 [21]: 1400 nM
SMILES: CCOc1ccc(-c2c(C(C)(C)O)oc(=O)c3ccccc23)cc1OC1CCCC1

The remaining lines, values behind:

SMILES: CN1CCN(C(=O)c2ccc(-c3cc(Cl)c4c(c3)C3(CCCCC3)NC(=O)N4)cc2)CC1
half-life [1]: 1.5 h | bioavailability [2]: 27% | IC50 (Phosphodiesterase 7 [3]): 14 nM | IC50 (Phosphodiesterase 4 [4]): 1700 nM

SMILES: O=c1c2ccccc2[nH]c(=S)n1-c1ccccc1
IC50 [5]: 8800 nM

SMILES: O=C1Nc2c(Cl)cccc2C2(CCCCC2)N1
IC50 (Phosphodiesterase 7 [3]): 170 nM

SMILES: COc1cc(CN(Cc2ccc(OC)cc2OC)c2ncnc3c2nnn3C2CC(C(F)(F)F)CCC2(F)F)cc(OC)c1 (stereo not given)
IC50 (Phosphodiesterase 7 [6]): < 10 nM | IC50 (Phosphodiesterase 4 [7]): 11900 nM

SMILES: COc1ccc(Cn2c(=O)c3cc(OC(CF)CF)ccc3n(C3CCN(C=O)CC3)c2=O)cc1OC
IC50 (Phosphodiesterase 7 [8]): 39 nM | IC50 [9]: 140 nM

SMILES: COc1ccc(Cn2c(=O)c3cc(OCC#N)ccc3n(C3CCSCC3)c2=O)cc1OC
IC50 (Phosphodiesterase 7 [6]): 5.5 nM

SMILES: COc1ccc(C2=NN(C3CCCC3)C(=O)[C@@H]3CC=CC[C@H]23)cc1Cl
IC50 [11]: 18.6 nM | IC50 (Phosphodiesterase 3): 0.76 nM | Kp at 0.5 h [12]: 1.69

SMILES: Cn1nc(-c2ccc(C(N)=O)cc2)s/c1=N\[C@@H]1CCC[C@@H](O)C1
IC50 [13]: 88 nM | IC50 [14]: 616 nM | bioavailability [15]: 38.5%

SMILES: CCOC(=O)c1sc(Nc2nc(NCc3ccc(S(N)(=O)=O)cc3)c3c(ncn3CC)n2)nc1C
solubility [18]: 5 µg/mL (≈ 9.68 µM)

SMILES: COc1cc(-c2nc(NC3CCCC3)c3ccsc3n2)cc(OC)c1OC
IC50 (Phosphodiesterase 7 [6]): 20 nM

SMILES: CCn1c(NC(C)C)nc2c(C3CCN(C(=O)c4cccc(C)n4)C3)csc2c1=O (stereo not given)
IC50 (Phosphodiesterase 7 [20]): 3.3 nM | IC50 (Phosphodiesterase 4 [7]): 46 nM

SMILES: CC(C)Cn1c(=O)n(C)c(=O)c2nc[nH]c21 [ISOBUTYLMETHYLXANTHINE]
IC50 (Phosphodiesterase 7 [8]): 8100 nM

SMILES: COc1cc(Cn2c(=O)c3cc(OC(CF)CF)ccc3n(C3CCN(C=O)CC3)c2=O)ccc1OCC(=O)N1CCCCC1
IC50 (Phosphodiesterase 7 [8]): 46 nM

SMILES: Cn1nc(-c2ccc(C(N)=O)cc2)s/c1=N\C1CCCCC1
IC50 [13]: 61 nM | IC50 [14]: 15300 nM

SMILES: Cc1ccc([N+](=O)[O-])cc1S(=O)(=O)N(C)C
IC50 [5]: 620 nM | Ratio IC50 (Homo sapiens): 238

SMILES: COc1ccc(C2=NN(C3CCN(C(=O)N4CCOCC4)CC3)C(=O)[C@@H]3CC=CC[C@H]23)cc1Cl
IC50 [5]: 23 nM | IC50 [16]: 2.3 nM | Ratio IC50 [17]: 10

SMILES: CC(C)(C)CSc1nc2ccccc2c(=O)n1-c1ccccc1
IC50 (Phosphodiesterase 7 [6]): 100 nM

SMILES: O=C1Nc2c(Cl)cc3nc(CN4CCNCC4)oc3c2C2(CCCCC2)N1
IC50 [14]: < 10 nM

SMILES: CCCCc1nc2c(c(=O)n(C)c(=O)n2C)n1CCCC(=O)Nc1cc(C(C)(C)C)ccc1O
IC50 [23]: 543 nM

SMILES: O=C1Nc2c(Cl)ccc(OCCO)c2C2(CCCCC2)N1
IC50 (Phosphodiesterase 7 [6]): 55 nM | IC50 (Phosphodiesterase 7 [3]): 55 nM

SMILES: COc1ccc(Cn2c(=O)c3cc(OCC#N)ccc3n(C3CC[S+]([O-])CC3)c2=O)cc1OC (stereo not given)
IC50 (Phosphodiesterase 7 [6]): 6.1 nM

SMILES: CN(C)C(=O)CCN(C)C(=O)c1nc2cc(Cl)c3c(c2o1)C1(CCCCC1)NC(=O)N3
IC50 [14]: < 10 nM

SMILES: CCn1ncc2c(NC3CCOCC3)c(-c3nnc(Cc4sc(C)nc4C)o3)cnc21 [GSK-356278]
IC50 [11]: 0.76 nM | IC50 (Phosphodiesterase 3): 5 nM

SMILES: Cn1nc(-c2ccc(Cl)cc2)s/c1=N\C1CCCCC1
IC50 (Phosphodiesterase 7 [6]): 1500 nM

SMILES: CSc1nc2c(C)cccc2c(=O)n1-c1c(F)cccc1F
IC50 (Phosphodiesterase 7 [6]): 130 nM | IC50 (Phosphodiesterase 4 [7]): 1400 nM
